{"source": "PubChem BioAssay AID1919015", "about": "(Molecular Pharmacology Branch, DTP, NCI, 2023)", "system": "OVCAR-5 complex spheroids with HUVEC/MSC, viability, % test/control", "assay": "Anticancer human tumor OVCAR-5 cell line growth inhibition [AhR];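 on all read-outs here: spheroids exposed to compounds for 7 days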;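 on viability, T/C: 100% = DMSO vehicle control wells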", "conditions": "for IC50: curve of first compound; for viability, T/C: stronger effect = lower value", "procedure,_shortened": "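Complex tumor spheroids co-cultured with HUVEC and human MSC stroma; AhR antagonists tested in combination with standard-of-care and investigational agents. Top concentration at or near clinical Cmax (else 10 microM), half-log dilutions; growth expressed as percent test/control.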", "data": [{"smiles": "CC(C)c1c(-c2ccccc2)nc2c(C#N)c[nH]n2c1=O", "note": "+ Cc1cncc(-c2nc(NCCc3c[nH]c4ccccc34)c3ncn(C(C)C)c3n2)c1", "values": [{"measurement": "IC50", "setting": "second compound 0.1 µM", "value": "> 10", "unit": "µM"}, {"measurement": "IC50", "setting": "second compound 0.316 µM", "value": "> 10", "unit": "µM"}, {"measurement": "IC50", "setting": "second compound 1 µM", "value": "> 10", "unit": "µM"}, {"measurement": "IC50", "setting": "second compound 3.16 µM", "value": "> 10", "unit": "µM"}, {"measurement": "IC50", "setting": "second compound 10 µM", "value": "< 0.0316", "unit": "µM"}, {"measurement": "viability, T/C", "setting": "second compound 0.1 µM, first compound 0.0316 µM", "value": 100, "unit": "%"}, {"measurement": "viability, T/C", "setting": "second compound 0.1 µM, first compound 0.1 µM", "value": 99.5, "unit": "%"}, {"measurement": "viability, T/C", "setting": "second compound 0.1 µM, first compound 0.316 µM", "value": 100, "unit": "%"}, {"measurement": "viability, T/C", "setting": "second compound 0.1 µM, first compound 1 µM", "value": 100, "unit": "%"}, {"measurement": "viability, T/C", "setting": "second compound 0.1 µM, first compound 3.16 µM", "value": 96.4, "unit": "%"}, {"measurement": "viability, T/C", "setting": "second compound 0.1 µM, first compound 10 µM", "value": 106, "unit": "%"}, {"measurement": "viability, T/C", "setting": "second compound 0.316 µM, first compound 0.0316 µM", "value": 101, "unit": "%"}, {"measurement": "viability, T/C", "setting": "second compound 0.316 µM, first compound 0.1 µM", "value": 103, "unit": "%"}, {"measurement": "viability, T/C", "setting": "second compound 0.316 µM, first compound 0.316 µM", "value": 98.5, "unit": "%"}, {"measurement": "viability, T/C", "setting": "second compound 0.316 µM, first compound 1 µM", "value": 102, "unit": "%"}, {"measurement": "viability, T/C", "setting": "second compound 0.316 µM, first compound 3.16 µM", "value": 95.2, "unit": "%"}, {"measurement": "viability, T/C", "setting": "second compound 0.316 µM, first compound 10 µM", "value": 106, "unit": "%"}, {"measurement": "viability, T/C", "setting": "second compound 1 µM, first compound 0.0316 µM", "value": 96.8, "unit": "%"}, {"measurement": "viability, T/C", "setting": "second compound 1 µM, first compound 0.1 µM", "value": 99.1, "unit": "%"}, {"measurement": "viability, T/C", "setting": "second compound 1 µM, first compound 0.316 µM", "value": 100, "unit": "%"}, {"measurement": "viability, T/C", "setting": "second compound 1 µM, first compound 1 µM", "value": 94.1, "unit": "%"}, {"measurement": "viability, T/C", "setting": "second compound 1 µM, first compound 3.16 µM", "value": 94.8, "unit": "%"}, {"measurement": "viability, T/C", "setting": "second compound 1 µM, first compound 10 µM", "value": 103, "unit": "%"}, {"measurement": "viability, T/C", "setting": "second compound 3.16 µM, first compound 0.0316 µM", "value": 81.5, "unit": "%"}, {"measurement": "viability, T/C", "setting": "second compound 3.16 µM, first compound 0.1 µM", "value": 84.1, "unit": "%"}, {"measurement": "viability, T/C", "setting": "second compound 3.16 µM, first compound 0.316 µM", "value": 86.1, "unit": "%"}, {"measurement": "viability, T/C", "setting": "second compound 3.16 µM, first compound 1 µM", "value": 83.6, "unit": "%"}, {"measurement": "viability, T/C", "setting": "second compound 3.16 µM, first compound 3.16 µM", "value": 90.1, "unit": "%"}, {"measurement": "viability, T/C", "setting": "second compound 3.16 µM, first compound 10 µM", "value": 88.7, "unit": "%"}, {"measurement": "viability, T/C", "setting": "second compound 10 µM, first compound 0.0316 µM", "value": 14.2, "unit": "%"}, {"measurement": "viability, T/C", "setting": "second compound 10 µM, first compound 0.1 µM", "value": 14.2, "unit": "%"}, {"measurement": "viability, T/C", "setting": "second compound 10 µM, first compound 0.316 µM", "value": 17.8, "unit": "%"}, {"measurement": "viability, T/C", "setting": "second compound 10 µM, first compound 1 µM", "value": 16.3, "unit": "%"}, {"measurement": "viability, T/C", "setting": "second compound 10 µM, first compound 3.16 µM", "value": 16, "unit": "%"}, {"measurement": "viability, T/C", "setting": "second compound 10 µM, first compound 10 µM", "value": 25.1, "unit": "%"}]}]}
